Assay results published in patent US12076334B2, “Pharmaceutical composition comprising adenosine derivative for prevention and treatment of retinal disease or optic nerve disease” (FUTURE MEDICINE CO., LTD., priority 2017, dated 2024).
Like-named read-outs stand apart in the source and are kept apart here.

Columns and labels:
[1] = tested on: photoreceptor cells derived from the mouse retina; assay: Mitochondrial membrane potential analysis (JC-1, flow cytometer); assay type: cell-based; settings: for R2 (cell distribution, JC-1 flow cytometry): normal control 13.78 ± 1.12; for R1 (cell distribution, JC-1 flow cytometry): normal control 86.22 ± 1.12
Experimental: The prepared solution was stored at −20° C. until use. In addition, 10 mg of CCCP was dissolved in 1 mL of DMSO to prepare a 50 mM CCCP solution. The prepared solution was stored at −20° C. until use. Treatment of the test material was performed after diluting with a serum-free cell culture medium in 1:1000 (v/v). The control group was treated after diluting with DMSO in 1:1000 v/v).
Intracellular mitochondrial cell membrane potential was analyzed using JC-1 reagent. […] Thereafter, […] of JC-1 was treated and incubated for 30 minutes.

[2] = tested on: photoreceptor cells derived from the mouse retina; assay: Cell protective effect against glutamic acid-induced cell death (cell viability); assay type: cell-based; settings: n=6, read-out: EC50 (50% effective concentration), protection from glutamic acid-induced apoptosis
Experimental: (§1) Compound A to be used as a test material was prepared by dissolving in DMSO. The prepared solution was stored at −20° C. until use. In addition, 10 mg of CCCP was dissolved in 1 mL of DMSO to prepare a 50 mM CCCP solution. The prepared solution was stored at −20° C. until use. Treatment of the test material was performed after diluting with a serum-free cell culture medium in 1:1000 (v/v). The control group was treated after diluting with DMSO in 1:1000 v/v).
This experimental result means that Compound A has a protective effect against glutamic acid-induced apoptosis.

[3] = tested on: photoreceptor cells derived from the mouse retina; assay: TUNEL assay and DAPI staining of glutamic acid-induced apoptosis; assay type: cell-based; settings: pretreated 1 μM 1 hour, then 5 mM glutamic acid 8 hours; vs glutamic acid only
Experimental: as §1
Quantitative analysis of apoptosis cells was analyzed by DeadEnd™ Fluorometric TUNEL System. […] Cells were washed twice with PBS and fixed with 10% formalin for 15 minutes. Fixed cells were exposed to 0.1% Triton X-100 for 10 minutes. After the cells were reacted with dUTP containing fluorescence, the cut DNA portion was stained and then fixed on a slide with a mounting solution containing DAPI. The stained cells were observed through a fluorescence microscope.

[4] = tested on: photoreceptor cells derived from mouse retina; assay: RT-PCR mRNA expression of angiogenesis- and inflammation-related factors in HMGB-1-treated photoreceptor cells; assay type: cell-based; settings: increased by HMGB-1, 6 h
Experimental: (§2) Compound A to be used as a test material was prepared by dissolving in DMSO. The prepared solution was stored at −20° C. until use. Treatment of the test material was treated after diluting to 1:1000 (v/v) in a serum-free cell culture medium. The control group was treated after diluting to 1:1000 (v/v) in DMSO.
In order to confirm the efficacy of the test material in reactions related to angiogenesis and inflammatory response of photoreceptor cells derived from mouse retina, cells cultured for 6 hours under various conditions were treated with TRIzol solution to isolate total RNA in cells. After the cDNA was synthesized using specific primers for the target gene (Table 2) and reverse transcriptase in the isolated total RNA, expression of the related factors was confirmed. mRNA expression levels were analyzed by expressing as relative values using ImageJ software.

[5] = tested on: mouse retina-derived photoreceptor cell; assay: Immunoblot of apoptosis-related proteins in glutamic acid-treated photoreceptor cells; assay type: cell-based
Experimental: as §1
In order to confirm the efficacy of a test material for angiogenesis-related response and inflammatory response of a mouse retina-derived photoreceptor cell, cells cultured for 24 hours under various conditions were collected and intracellular protein was extracted by using a PRO-PREP protein extraction kit. Quantification of the extracted protein was measured using a BCA protein assay kit. 40 μg of protein was separated by 10% SDS-PAGE and then attached to a PVDF membrane. The protein-attached membrane was reacted with Tris-buffered saline with 0.1% Tween-20 (TBST) containing 5% skim milk for 30 minutes, followed by reactions of primary and secondary antibodies in sequence. The protein expression level was confirmed using photograph by a Fusion Fximage acquisition system. The protein expression level was analyzed by expressing as a relative value using ImageJ.

[6] = tested on: photoreceptor cells derived from mouse retina; assay: Immunoblot of angiogenesis- and inflammation-related proteins in HMGB-1-treated photoreceptor cells; assay type: cell-based; settings: 24 h
Experimental: as §2
In order to confirm the efficacy of the test material in reactions related to angiogenesis and inflammatory response of photoreceptor cells derived from mouse retina, cells cultured for 24 hours under various conditions were recovered and intracellular proteins were extracted using a PRO-PREP protein extraction kit. Quantification of the extracted protein was measured using a BCA protein assay kit. 40 μg of protein was separated by 10% SDS-PAGE and then attached to the PVDF membrane. The protein-attached membrane was reacted with TBST (Tris-buffered saline with 0.1% Tween-20) containing 5% skim milk for 30 minutes and the primary antibody and secondary antibody were reacted in sequence. The protein expression level was confirmed by photographing using a Fusion Fximage acquisition system. The protein expression level was analyzed by relative values using ImageJ.
In relation to high mobility group box 1 (HMGB-1), it has been reported that the expression of HMGB-1 was increased when pressure was applied to photoreceptor cells derived from the mouse retina, and when HMGB-1 was treated to photoreceptor cells, angiogenesis-related factors and inflammatory responses increase (Bohm M R et al., Lab Invest, 96, 409-427, 2016). Accordingly, in the present disclosure, the efficacy of adenosine derivatives against angiogenic response and inflammatory response according to damage to photoreceptor cells was verified based on the above reference.

[7] = tested on: caspase 3/7; assay: Caspase 3/7 activity assay (Caspase-Glo 3/7); assay type: cell-based, mouse; settings: pretreatment 1 hour, then 5 mM glutamic acid 24 hours
Experimental: The activity of intracellular caspase 3/7 was analyzed by Caspase-Glo 3/7 assay system. […] After adding the kit solution in the same amount as the cell culture medium and reacting for 1 hour, the relative activity was analyzed by measuring the amount of generated luminescence through a microplate reader.

[8] = tested on: caspase 8; assay: Caspase 8 activity assay (Caspase-Glo 8); assay type: cell-based, mouse; settings: pretreatment 1 hour, then 5 mM glutamic acid 24 hours
Experimental: The activity of intracellular caspase 8 was analyzed by Caspase-Glo 8 assay system. […] After adding the kit solution in the same amount as the cell culture medium and reacting for 1 hour, the relative activity was analyzed by measuring the amount of generated luminescence through a microplate reader.

[9] = tested on: photoreceptor cells derived from mouse retina; assay: ELISA of intracellular inflammatory cytokines (TNFα, IL-1β, IL-6) in HMGB-1-treated photoreceptor cells; assay type: cell-based; settings: increased by HMGB-1, 24 h
Experimental: as §2
In order to confirm the efficacy of the test material in reactions related to angiogenesis and inflammatory response of photoreceptor cells derived from mouse retina, cells cultured for 24 hours under various conditions were recovered and intracellular proteins were extracted using a PRO-PREP protein extraction kit. Quantification of the extracted protein was measured using a BCA protein assay kit. Quantitative analysis of inflammatory cytokines (TNFα, IL-1β, IL-6) present in the cells was analyzed with each ELISA kit.

[10] = tested on: photoreceptor cells derived from mouse retina; assay: ELISA of VEGF in medium of HMGB-1-treated photoreceptor cells; assay type: cell-based; settings: increased by HMGB-1; Compound A 0.1 μM or more; 24 h
Experimental: as §2
In order to confirm the efficacy of the test material in reactions related to angiogenesis of photoreceptor cells derived from mouse retina, the medium of cells cultured for 24 hours under various conditions was collected after centrifugation. Quantitative analysis of VEGF present in the medium was analyzed with the Mouse VEGF Quantikine ELISA Kit.

[11] = Cytotoxicity of glutamic acid (cell viability, cell proliferation assay kit); assay type: cell-based; settings: mouse; 0-9 mM, 24 hours incubation
[12] = cells treated with the agent only (glutamic acid 5 mM 6 hours, or CCCP)
[13] = pretreated with 1 μM Compound A 1 hour, then 5 mM glutamic acid 6 hours
[14] = changed by glutamic acid, pretreated with Compound A
[15] = increased by glutamic acid, pretreated with Compound A
[16] = pretreatment of Compound A, glutamic acid-treated cells
[17] = HMGB-1 (5 μg/mL), Compound A 2 μM
[18] = HMGB-1 (5 μg/mL), Compound A at least 0.1 μM
[19] = HMGB-1 (5 μg/mL), Compound A at least 0.5 μM
[20] = increased by HMGB-1 (5 μg/mL), Compound A at least 0.5 μM

N#CC(C#N)=NNc1cccc(Cl)c1 [CCCP]
R2 (cell distribution, JC-1 flow cytometry) [1, 12]: 90.58 ± 1.48 | R1 (cell distribution, JC-1 flow cytometry) [1, 12]: 9.42 ± 1.48

O[C@@H]1[C@H](O)CS[C@H]1n1cnc2c(NCc3cccc(Cl)c3)nc(Cl)nc21 [Compound A, (2R,3R,4S)-2-(2-chloro-6-(3-chlorobenzylamino)-9H-purin-9-yl)tetrahydrothiophene-3,4-diol]
R2 (cell distribution, JC-1 flow cytometry) [1, 13]: 28.30 ± 1.60 | R1 (cell distribution, JC-1 flow cytometry) [1, 13]: 71.70 ± 1.60 | EC50 ([2]; pretreatment for 30 min): 0.31 ± 0.08 µM | EC50 ([2]; pretreatment for 1 hour): 0.35 ± 0.06 µM | number of TUNEL-positive nuclei [3]: significantly reduced | COX2 mRNA expression ([4]; Compound A 0.1 μM or more): significantly inhibited | IL-6 mRNA expression ([4]; Compound A 0.1 μM or more): significantly inhibited | VEGF mRNA expression ([4]; Compound A 0.1 μM or more): significant decrease | VEGFR1 mRNA expression ([4]; Compound A 0.1 μM or more): significant decrease | MMP9 mRNA expression ([4]; Compound A 0.5 μM or more): significantly reduced | TNFα mRNA expression ([4]; Compound A 0.5 μM or more): significantly reduced | VEGFR2 mRNA expression ([4]; Compound A 0.5 μM or more): significantly decreased | ICAM1 mRNA expression ([4]; Compound A 1 μM or more): significantly reduced | MMP2 mRNA expression ([4]; Compound A 1 μM or more): significantly reduced | VCAM1 mRNA expression ([4]; Compound A 1 μM or more): significantly reduced | BID protein expression [5, 14]: recovered to the same expression level as the normal group | Bad protein expression [5, 14]: recovered to the same expression level as the normal group | Bcl2 protein expression [5, 14]: recovered to the same expression level as the normal group | pBad protein expression [5, 14]: recovered to the same expression level as the normal group | pBcl2 protein expression [5, 14]: recovered to the same expression level as the normal group | RIP protein expression ([5]; decreased by glutamic acid, pretreated with Compound A): increased again in a concentration-dependent manner | caspase 8 protein expression [5, 15]: significantly decreased | cleaved caspase 3 protein expression [5, 15]: significantly decreased | cleaved caspase 9 protein expression [5, 15]: significantly decreased | expression of AIF in the nucleus [5, 16]: decreased significantly | expression of cytochrome c in the cytoplasm [5, 16]: decreased significantly | ANG1 protein expression [6, 17]: significantly increased | ICAM1 protein expression [6, 17]: significantly decreased | VCAM1 protein expression [6, 17]: significantly decreased | ANG2 protein expression [6, 18]: significantly decreased | MMP9 protein expression [6, 18]: significantly decreased | VEGFR1 protein expression [6, 18]: significantly decreased | COX2 protein expression [6, 19]: significantly reduced | MMP2 protein expression [6, 19]: significantly reduced | VEGF protein expression [6, 20]: significantly reduced | VEGFR2 protein expression [6, 20]: significantly reduced | activity of caspase 3/7 [7]: inhibited in a concentration-dependent manner | activity of caspase 8 [8]: inhibited in a concentration-dependent manner | amount of TNFα in cells (ELISA) ([9]; Compound A 0.1 μM or higher): significantly reduced | amount of IL-1β in cells (ELISA) ([9]; Compound A 1 μM or higher): significantly reduced | amount of IL-6 in cells (ELISA) ([9]; Compound A 1 μM or higher): significantly reduced | amount of VEGF (ELISA, medium) [10]: significantly decreased

N[C@@H](CCC(=O)O)C(=O)O [glutamic acid]
R2 (cell distribution, JC-1 flow cytometry) [1, 12]: 63.87 ± 10.42 | R1 (cell distribution, JC-1 flow cytometry) [1, 12]: 36.13 ± 10.42 | IC50 at 24 h [11]: 5100 ± 500 µM
